Columns and labels:
[1] = clinical trials, cited from earlier work; for mitigation of clinical AD progression: drugs aimed at preventing Aβ aggregates from forming into SPs
[2] = system: peripheral blood cells; experiment: filipin staining of peripheral blood cells measured by flow cytometry after inducing cholesterol dysregulation; format: cell-based; conditions: peripheral blood cells (PBCs) treated with the compound; FIG. 7
From the text: In some embodiments, peripheral blood cells can be isolated and filipin levels measured by flow cytometry. This can allows for the cells to be isolated inexpensively and at minimal risk to the patient from simple venipuncture rather than requiring the invasive punch biopsy method for collection of fibroblasts as used and described in the results presented herein. A venipuncture can be performed with a venipuncture assembly including, for example, but not limited to, a plastic hub, a hydrodermic needle, a vacuum tube, a syringe, a butterfly needle, and/or other blood collection or vanipuncture devices known in the art. Accordingly, the ability to isolate peripheral blood cells and measure the filipin levels by flow cytometry can facilitate the commercialization of the testing procedure and techniques described herein for preventing and detecting disease. The isolation of peripheral blood cells and measuring of the filipin levels by flow cytometry was tested in two ways. […] Cholesterol dysregulation was induced by treating the cells with Ul 8666A, a compound that inhibits cholesterol synthesis and intracellular trafficking.

Row | SMILES | mitigation of clinical AD progression [1] | further results
1 | C[C@@H](C(=O)O)c1ccc(-c2ccccc2)c(F)c1 [tarenflurbil] |  | benefit to cognitive function ([1]; compounds targeting γ-secretase, even when reducing Aβ levels): no benefit to cognitive function
2 | O[C@H]1[C@H](O)[C@@H](O)[C@H](O)[C@@H](O)[C@@H]1O [scyllo-inositol] | failed to mitigate clinical AD progression | 
3 | CCN(CC)CCO[C@H]1CC[C@@]2(C)C(=CC[C@@H]3[C@@H]2CC[C@]2(C)C(=O)CC[C@@H]32)C1 [U18666A] |  | effect on filipin staining (filipin fluorescence) [2]: dose-dependent effect
4 | NCCCS(=O)(=O)O [homotaurine] | failed to mitigate clinical AD progression | 

Source: patent US20160320417A1, “METHODS AND KITS FOR DETERMINING RISK FOR DEVELOPING ALZHEIMER'S DISEASE AND PREVENTION OR TREATMENT THEREOF” (Loma Linda University, priority 2013, published 2016)
